Data published in paper PMC10696396, “HilE represses the activity of the Salmonella virulence regulator HilD via a mechanism distinct from that of intestinal long-chain fatty acids” (The Journal of Biological Chemistry, 2023).

Legend:
HilD [1] = target: T1, HilD (Salmonella enterica, UniProt P0CL08); assay: EMSA with hilA promoter DNA; format: biochemical; set-up: HilD
HilD [2] = target: T1, HilD; assay: MST; supported by nanoDSF melting temperature increase; format: binding; set-up: EYFP-HilD (full-length HilD with N-terminal EYFP tag); details: read-out: Kd ± SD
HilD [3] = target: T2, HilD (Salmonella enterica, UniProt P0CL08, E102A); assay: MST; format: binding
T2 construct: HilD point mutant
T2 sequence (P0CL08 1-309 E102A): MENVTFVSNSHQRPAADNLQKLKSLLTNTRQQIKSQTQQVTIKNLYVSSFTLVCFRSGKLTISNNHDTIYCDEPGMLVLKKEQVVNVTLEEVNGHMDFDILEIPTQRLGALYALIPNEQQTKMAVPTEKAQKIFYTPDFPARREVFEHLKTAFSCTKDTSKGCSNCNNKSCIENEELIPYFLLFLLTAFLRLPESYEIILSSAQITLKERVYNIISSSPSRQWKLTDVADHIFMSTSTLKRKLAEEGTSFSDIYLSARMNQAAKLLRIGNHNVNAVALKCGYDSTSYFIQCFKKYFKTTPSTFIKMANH

HilD [4] = target: T3, HilD (Salmonella enterica, UniProt P0CL08, R267A); assay: MST; format: binding
T3 construct: HilD point mutant
T3 sequence (P0CL08 1-309 R267A): T2 sequence (P0CL08 1-309 E102A)

HilD [5] = target: T4, HilD (Salmonella enterica, UniProt P0CL08, E102A/K264A/R267A); assay: MST; format: binding
T4 construct: HilD triple alanine mutant
T4 sequence (P0CL08 1-309 E102A/K264A/R267A): T2 sequence (P0CL08 1-309 E102A)

HilD [6] = target: T5, HilD (Salmonella enterica, UniProt P0CL08, K264A); assay: MST; format: binding
T5 construct: HilD point mutant
T5 sequence (P0CL08 1-309 K264A): T2 sequence (P0CL08 1-309 E102A)

HilD [7] = target: T1, HilD; assay: MST; supported by HDX-MS, nanoDSF and BS3 cross-linking; format: binding; set-up: EYFP-HilD (full-length HilD with N-terminal EYFP tag); details: read-out: Kd ± SD
HilD [8] = target: T1, HilD; assay: MST; format: binding; set-up: EYFP-HilD (full-length HilD with N-terminal EYFP tag); details: read-out: Kd ± SD
HilD [9] = target: T1, HilD; assay: biochemical; set-up: EYFP-HilD (full-length HilD with N-terminal EYFP tag); microscale thermophoresis, fatty acid titrated against EYFP-HilD in presence of Pluronic F-127, MST on-time 1.5 s; details: in presence of Pluronic F-127; read-out: Kd ± SD

CCCCCCCC/C=C/CCCCCCCC(=O)O [elaidic acid]
EMSA with hilA promoter DNA (HilD [1]): Elaidic acid appears to bind to HilD with similar affinity to oleic acid

CCCCCC/C=C\CCCCCCCC(=O)O [palmitoleic acid]
Kd (HilD [2]): 27.6 ± 8.7 µM

CCCCCCCC/C=C\CCCCCCCC(=O)O [oleic acid]
Kd (HilD [3]): 39 ± 8.26 µM
Kd (HilD [4]): 39.4 ± 7.98 µM
Kd (HilD [5]): 39.7 ± 7.9 µM
Kd (HilD [6]): 27.1 ± 7.08 µM
Kd (HilD [7]): 15 ± 3.21 µM

CCCCCCCC/C=C\CCCCCCCCCCCC(=O)O [erucic acid]
Kd (HilD [8]): 12.8 ± 3.33 µM
Kd (HilD [9]): 14.7 µM

CCCCCCCC/C=C\CCCCCCCC(=O)OC [Methyl Oleate]
Kd (HilD [9]): 739 µM

CCCC/C=C\CCCCCCCC(=O)O [Myristoleic Acid]
Kd (HilD [9]): 567 µM
